# From DBAASP
# What was measured:
# Assay in all cases: ≥ marks a high value that may be exact or a test limit, other limits are often not marked, values filed in µg/mL are converted to µM
# [1] = test system: Batrachochytrium dendrobatidis
# Staphylococcus aureus = test system: Staphylococcus aureus
# [2] = test system: Candida albicans ATCC 20032
# [3] = test system: Bacillus subtilis ATCC 6633
# [4] = test system: Staphylococcus aureus ATCC 25923
# [5] = test system: Escherichia coli ATCC 25922
# Enterobacter cloacae = test system: Enterobacter cloacae
# [6] = test system: Salmonella enterica subsp. enterica serovar Enteritidis
# [7] = test system: Staphylococcus haemolyticus
# Klebsiella pneumoniae = test system: Klebsiella pneumoniae
# Escherichia coli B = test system: Escherichia coli B
# Bacillus megaterium = test system: Bacillus megaterium
# Salmonella typhimurium = test system: Salmonella typhimurium
# [8] = test system: Shigella flexneri ATCC 203
# [9] = test system: Staphylococcus aureus JC-1
# [10] = test system: Staphylococcus aureus Cowan 1
# [11] = test system: Proteus vulgaris OX19 ATCC 6380
# Bacillus megaterium Bm11 = test system: Bacillus megaterium Bm11
# Escherichia coli D21 = test system: Escherichia coli D21
# [12] = test system: Pseudomonas aeruginosa OT97
# [13] = test system: Bacillus subtilis KCTC 1918
# [14] = test system: Pseudomonas aeruginosa KCTC 1637
# [15] = test system: Staphylococcus aureus KCTC 1621
# [16] = test system: Escherichia coli KCTC 1682
# [17] = test system: Streptococcus pyogenes KCTC 3096
# [18] = test system: Salmonella typhimurium KCTC 1926
# [19] = test system: Candida albicans NCYC 1467
# [20] = test system: Staphylococcus aureus NCTC 10788
# [21] = test system: Escherichia coli ATCC 25726
# [22] = test system: Legionella pneumophila Lens
# [23] = test system: Candida albicans ATCC 10231
# [24] = test system: Burkholderia thailandensis
# [25] = test system: Bacillus anthracis Sterne 34F2
# [26] = test system: Klebsiella pneumoniae ATCC 13883
# [27] = test system: Staphylococcus aureus ATCC 29213
# [28] = test system: Bacillus subtilis ATCC 9372
smiles,measurement,setting,value
CC[C@H](C)[C@H](NC(=O)[C@H](C)NC(=O)[C@H](CO)NC(=O)[C@@H](NC(=O)[C@@H](N)Cc1ccccc1)[C@@H](C)CC)C(=O)N[C@@H](C)C(=O)N[C@@H](CO)C(=O)N[C@@H](CCSC)C(=O)N[C@@H](CC(C)C)C(=O)NCC(=O)N[C@@H](CCCCN)C(=O)N[C@@H](Cc1ccccc1)C(=O)N[C@@H](CC(C)C)C(N)=O [FISAIASMLGKFL],MIC,[1],≥ 100 µM
same,MIC,Staphylococcus aureus,100 µM
CC[C@H](C)[C@H](NC(=O)CN)C(=O)NCC(=O)NCC(=O)N[C@H](C(=O)N[C@@H](CC(C)C)C(=O)N[C@@H](CC(C)C)C(=O)NCC(=O)N[C@@H](C)C(=O)NCC(=O)N[C@@H](CCCCN)C(=O)N[C@@H](C)C(=O)N[C@H](C(=O)N[C@@H](CC(C)C)C(=O)N[C@@H](CCCCN)C(=O)NCC(=O)N[C@@H](CC(C)C)C(=O)N[C@@H](C)C(=O)N[C@@H](CCCCN)C(=O)N[C@H](C(=O)N[C@@H](CC(C)C)C(=O)N[C@@H](C)C(=O)N[C@@H](CCC(=O)O)C(=O)N[C@@H](CCCCN)C(=O)N[C@@H](Cc1ccc(O)cc1)C(=O)N[C@@H](C)C(=O)N[C@@H](CC(N)=O)C(N)=O)C(C)C)[C@@H](C)O)C(C)C [GIGGVLLGAGKATLKGLAKVLAEKYAN],MIC,[2],≥ 38.3 µM
same,MIC,[3],≥ 38.3 µM
same,MIC,[4],7.19 µM
same,MIC,[5],> 38.3 µM
CC[C@H](C)[C@H](NC(=O)[C@@H](NC(=O)[C@@H]1CCCN1C(=O)[C@@H](NC(=O)[C@@H](NC(=O)[C@H](CCCN=C(N)N)NC(=O)[C@@H]1CCCN1C(=O)[C@@H](NC(=O)[C@@H](NC(=O)[C@H](Cc1cnc[nH]1)NC(=O)[C@H](CCCCN)NC(=O)[C@H](C)NC(=O)[C@@H](NC(=O)[C@H](CO)NC(=O)CNC(=O)[C@H](CC(C)C)NC(=O)[C@@H](NC(=O)[C@H](CO)NC(=O)[C@H](Cc1ccccc1)NC(=O)[C@H](CC(C)C)NC(=O)CN)C(C)C)C(C)C)C(C)C)C(C)C)C(C)C)C(C)C)C(C)C)C(=O)N[C@@H](C)C(=O)N[C@@H](CCC(=O)O)C(=O)N[C@@H](Cc1cnc[nH]1)C(=O)N[C@@H](CC(C)C)C(N)=O [GLFSVLGSVAKHVVPRVVPVIAEHL],MIC,Enterobacter cloacae,≥ 50 µM
same,MIC,[6],≥ 100 µM
same,MIC,[7],≥ 50 µM
same,MIC,Klebsiella pneumoniae,25 µM
same,MIC,Escherichia coli B,25 µM
same,MIC,Bacillus megaterium,≥ 100 µM
same,MIC,Salmonella typhimurium,≥ 100 µM
same,MIC,Staphylococcus aureus,> 100 µM
CC[C@H](C)[C@H](N)C(=O)N[C@@H](CC(C)C)C(=O)NCC(=O)N1CCC[C@H]1C(=O)N[C@H](C(=O)N[C@@H](CC(C)C)C(=O)NCC(=O)N[C@@H](CC(C)C)C(=O)N[C@@H](CC(=O)O)C(=O)NCC(=O)N[C@@H](CC(N)=O)C(=O)N[C@@H](C)C(=O)N[C@@H](CC(C)C)C(=O)NCC(=O)NCC(=O)N[C@@H](CC(C)C)C(=O)N[C@H](C(=O)N[C@@H](CCCCN)C(=O)N[C@@H](CCCCN)C(=O)N[C@H](C(N)=O)[C@@H](C)CC)[C@@H](C)CC)C(C)C [ILGPVLGLDGNALGGLIKKI],MIC,[2],≥ 51 µM
same,MIC,[3],≥ 51 µM
same,MIC,[4],> 51 µM
same,MIC,[5],> 51 µM
CC[C@H](C)[C@H](NC(=O)[C@H](CCCCN)NC(=O)[C@@H](NC(=O)[C@@H](NC(=O)[C@H](CCC(N)=O)NC(=O)CNC(=O)[C@H](Cc1cnc[nH]1)NC(=O)[C@H](CCC(N)=O)NC(=O)[C@H](CC(N)=O)NC(=O)[C@H](CCC(N)=O)NC(=O)[C@@H](NC(=O)[C@@H](N)CCCCN)C(C)C)C(C)C)C(C)C)C(=O)N[C@@H](Cc1ccccc1)C(=O)N[C@@H](Cc1cnc[nH]1)C(=O)N[C@@H](Cc1cnc[nH]1)C(=O)O [KVQNQHGQVVKIFHH],MIC,[8],≥ 800 µM
same,MIC,[3],≥ 800 µM
same,MIC,[9],≥ 800 µM
same,MIC,[10],≥ 6000 µM
same,MIC,[11],≥ 6000 µM
same,MIC,Bacillus megaterium Bm11,≥ 1600 µM
same,MIC,Escherichia coli D21,≥ 3200 µM
same,MIC,[12],≥ 6000 µM
CC[C@H](C)[C@H](NC(=O)[C@H](CCCCN)NC(=O)[C@H](CCCCN)NC(=O)[C@H](Cc1ccccc1)NC(=O)[C@H](CC(C)C)NC(=O)[C@H](CCCCN)NC(=O)[C@H](Cc1c[nH]c2ccccc12)NC(=O)[C@@H](N)CCCCN)C(=O)NCC(=O)N1CCC[C@H]1C(=O)NCC(=O)N[C@@H](CCCCN)C(=O)N[C@@H](Cc1ccccc1)C(=O)N[C@@H](CC(C)C)C(=O)N[C@@H](Cc1cnc[nH]1)C(=O)N[C@@H](CO)C(=O)N[C@@H](C)C(=O)N[C@@H](CCCCN)C(=O)N[C@@H](CCCCN)C(=O)N[C@@H](Cc1ccccc1)C(N)=O [KWKLFKKIGPGKFLHSAKKF],MIC,[13],0.78 µM
same,MIC,[14],0.78 µM
same,MIC,[15],3.12 µM
same,MIC,[16],3.12 µM
same,MIC,[17],0.78 µM
same,MIC,[18],0.78 µM
CC[C@H](C)[C@H](NC(=O)[C@H](C)NC(=O)[C@H](CO)NC(=O)[C@@H](NC(=O)[C@H](C)NC(=O)[C@H](CC(C)C)NC(=O)[C@@H]1CCCN1C(=O)[C@@H](NC(=O)[C@H](CCSC)NC(=O)CNC(=O)[C@H](CC(C)C)NC(=O)[C@@H](N)CC(C)C)[C@@H](C)CC)[C@@H](C)CC)C(=O)N[C@@H](CO)C(=O)N[C@@H](C)C(=O)N[C@@H](CC(C)C)C(=O)N[C@@H](CO)C(=O)N[C@@H](CCCCN)C(=O)N[C@@H](CC(C)C)C(N)=O [LLGMIPLAISAISALSKL],MIC,[4],8 µM
same,MIC,[1],≥ 100 µM
same,MIC,[19],17.7 µM
same,MIC,[20],4.42 µM
same,MIC,[21],≥ 128 µM
CC[C@H](C)[C@H](NC(=O)[C@H](CC(C)C)NC(=O)[C@H](CC(=O)O)NC(=O)[C@@H](NC(=O)[C@@H](NC(=O)[C@H](Cc1ccccc1)NC(=O)[C@H](CCC(N)=O)NC(=O)[C@@H](N)CCSC)[C@@H](C)CC)[C@@H](C)O)C(=O)NCC(=O)N[C@@H](CCCCN)C(=O)N[C@@H](C)C(=O)N[C@H](C(=O)N[C@@H](CC(=O)O)C(=O)N[C@@H](Cc1ccccc1)C(=O)N[C@@H](Cc1ccccc1)C(=O)N[C@@H](CCCCN)C(=O)NCC(=O)N[C@@H](CC(C)C)C(=O)N[C@@H](Cc1ccccc1)C(=O)N[C@@H](CC(=O)O)C(=O)N[C@@H](CC(N)=O)C(=O)N[C@@H](CCCCN)C(=O)O)C(C)C [MQFITDLIGKAVDFFKGLFDNK],MIC,[22],19.6 µM
CC[C@H](C)[C@H](NC(=O)[C@H](C)NC(=O)[C@@H](N)C(C)C)C(=O)N[C@@H](C)C(=O)N[C@@H](CC(C)C)C(=O)N[C@@H](CCCCN)C(=O)N[C@@H](C)C(=O)N[C@@H](C)C(=O)N[C@@H](Cc1cnc[nH]1)C(=O)N[C@@H](Cc1ccc(O)cc1)C(=O)N[C@@H](Cc1cnc[nH]1)C(=O)N[C@H](C(=O)N[C@@H](Cc1cnc[nH]1)C(=O)N[C@@H](CCCCN)C(=O)N[C@@H](CCC(=O)O)C(=O)O)[C@@H](C)O [VAIALKAAHYHTHKE],MIC,[23],0.592 µM
same,MIC,[24],≥ 50 µM
same,MIC,[25],≥ 100 µM
same,MIC,[26],≥ 75.8 µM
same,MIC,[27],75.8 µM
same,MIC,[28],≥ 100 µM
